According to US12209256B2, “System for protein inactivation and recombinant phages for targeted bacterial killing, infection, biodetection, and as a means of protein extraction” (priority 2018, dated 2025):

What was measured:
[1] = tested on: V. parahaemolyticus lysogenized with phage VP882; assay: Growth/lysis assay (OD600), VP882 lysogen; type: cell-based; details: for host cell lysis (OD600): wild-type VP882 lysogen, expression induced (ara or aTc) or MMC added
Method: (§1) Growth, Lysis, and Reporter Assays. Typically, overnight cultures were back diluted 1:1000 into fresh medium with appropriate antibiotics and strains were grown to OD600 0.5-0.6. Cultures were back diluted 1:20, and grown to OD600 0.1, before being dispensed (200 μL) into 96 well plates (Corning Costar 3904). MMC, ara, or aTc was added as specified. […] Plates were shaken at 37° C. and a BioTek Synergy Neo2 Multi-Mode reader was used to measure OD600, OD600 and bioluminescence, or OD600 and fluorescence. […]. In the case of fluorescence assays, M9 supplemented with 0.4% casamino acids (BD-Difco) was used and readings were made by excitation at 588 nm and emission at 633 nm. The glycerol stocks were prepared from three independent colonies of each strain at a single OD600. Care was taken to ensure that the OD600 between these strains was identical prior to storage. Parallel cultures of the same strains were used for viral preparations.

[2] = tested on: V. cholerae carrying the VP882 prophage; assay: Growth/lysis assay (OD600), V. cholerae carrying VP882; type: cell-based
Method: as §1

[3] = tested on: phage VP882 vqmAPhage::Tn5 in V. cholerae; assay: Viral load by quantitative PCR of viral preparations; type: cell-based
Method: qPCR and Viral Preparations. Viral preparations consisted of purified non-chromosomal DNA (ZR BAC kit, Zymo Research) prepared from 2 mL of cells. Following addition of the indicated compounds or water control, the cultures were returned to growth for 3 h prior to harvesting. This alteration in procedure was necessary to enable growth of sufficient cells for use with the viral preparation kit. 0.5 ng of purified non-chromosomal DNA was used for each qPCR reaction. qPCR reactions were performed as described above for qRT-PCR reactions. Data were analyzed by a comparative CT method in which the VP882 phage-specific primer set (JSO-1399×1400) was normalized to the non-phage plasmid-specific primer set (JSO-1401×1402). The reference sample for each comparison was the isogenic strain (Δtdh or WT) that was not induced.

[4] = tested on: E. coli, V. cholerae, and V. parahaemolyticus; assay: Generalized DPO-based phage kill switch growth/lysis assay (FIG. 4); type: cell-based; details: arabinose plus DPO (50 μM synthetic DPO per FIG. 4 legend)
Method: FIG. 4 is a graph showing the growth of E. coli, V. cholerae, and V. parahaemolyticus strains lysogenized with the generalized DPO-based phage kill switch in minimal medium lacking (black bars) or containing (white bars) 50 μM synthetic DPO to induce lysis, where all media contained arabinose.
as §1

[5] = tested on: V. parahaemolyticus harboring phage VP882; assay: Phage (virion) DNA isolation from culture fluids; type: cell-based
Method: Phage DNA Isolation. Phage DNA was purified from phage particles present in the supernatants of lysed cells (virion) and from host cell pellets lysogenized with VP882 (prophage). Prophage DNA was purified using the FosmidMAX kit (Lucigen) according to the manufacturer's protocol for 1.5 mL cultures. Virion DNA was isolated using a Phage DNA isolation kit (Norgen Biotek) including the DNase I and Proteinase K treatment steps indicated in the manufacturer's protocol.

Pq-lux [6] = assay: Pq-lux reporter assay in V. parahaemolyticus; type: cell-based; details: VP882 lysogen
Method: as §1

Pgp69-lux = Pgp69-lux reporter assay in V. parahaemolyticus lysogen; type: cell-based; details: VP882 lysogen
Method: as §1

Pq-lux [7] = assay: Pq-lux reporter assay in recombinant E. coli; type: cell-based
Method: as §1

phage VP882 cI = assay: Confocal microscopy of HALO-cI localization (VP882 cI); type: cell-based; details: single-cell level in E. coli
Method: (§2) Confocal Microscopy. Overnight cultures, started from single colonies of E. coli (T7Express) carrying HALO and/or SNAP fusions (see Table 2) were back-diluted 1:1000, and grown at 37° C. to OD600˜0.2. Either MMC, aTc, or ethanol in water was added. The so-treated samples were returned to shaking at 37° C. for an additional 60 min prior to live-cell staining and imaging. Live-cell staining was performed using a protocol adapted from (Ke et al., 2016). Briefly, HALO-TMR was added to each sample at 10 μM. The samples were incubated in the dark for 15-20 min at 37° C. The cells were pelleted at 13,000 g×1 min, washed twice with M9 medium, and resuspended in 50-150 μL of fresh M9 medium. 5-10 μL of each sample was spotted onto a glass coverslip and overlaid with a small amount of M9-agar. The samples were imaged on a Leica SP8 Confocal microscope. HALO-TMR was excited with 561 nm light and detected within a range of 579-622 nm. For SNAP-Qtip co-localization experiments, the SNAP-specific dye JF503 (Grimm et al., 2017) was added at 10 μM at the same time as the HALO-TMR reagent was added. SNAP was visualized by excitation at 504 nm and detection within 516-540 nm. All images were acquired under the same conditions (laser power and gain) in LASX (Leica Microsystems). Images were imported into Fiji for processing, which consisted solely of adjusting brightness and contrast (min-max).

HIS-HALO-Gp59 = assay: Western blot to assess HIS-HALO-Gp59 cleavage; type: cell-based, E. coli
cI = assay: Co-immunoprecipitation of HALO-cI with HIS-Gp55; type: binding, phage VP882; details: combined E. coli lysates
HALO-cI from MJ1 = assay: Confocal microscopy of HALO-cI localization (MJ1 cI); type: cell-based, phage MJ1; details: co-expression in E. coli
Method: as §2

[8] = tested on: HALO-cI repressor from vibriophage VP58.5; assay: Confocal microscopy of HALO-cI localization (VP58.5 cI); type: cell-based; details: co-expression in E. coli
Method: as §2

lambda HALO-cI = assay: Confocal microscopy of HALO-cI localization (lambda cI); type: cell-based; details: co-expression in E. coli
Method: as §2

[9] = synthetic DPO supplied to WT and Δtdh strains, vqmAPhage induced
[10] = WT and Δtdh strains, qtip from inducible promoter or MMC

With `Cc1cnc(O)c(C)n1` [DPO, 3,5-dimethylpyrazine-2-ol] the host cell lysis ([1]; minimal medium lacking threonine, DPO added in the absence of induction of VqmAPhage) was “no lysis”, the host cell lysis ([1]; minimal medium lacking threonine, vqmAPhage induced with 0.2% ara, DPO 10 μM) was “maximal host cell lysis” and the “additional lysis with exogenous DPO versus endogenously-produced DPO only” value ([2]; WT strain) was 25%. For the same molecule, the lysis [2, 9] was “lysis occurred”, the “additional increase in viral load with exogenous DPO versus endogenous DPO only” value ([3]; WT strain) was 35% and the viral load [3, 9] was “increased in both strains to similar extents”. For the same molecule, the lysis [4] was “maximal lysis”.

In the case of `CO[C@@]12[C@H](COC(N)=O)C3=C(C(=O)C(C)=C(N)C3=O)N1C[C@@H]1N[C@@H]12` [MMC, mitomycin C], the host cell lysis ([1]; VP882 phage harboring gp62::Tn5) is reported as “do not”, the host cell lysis ([1]; VP882 phage with a Tn5 in vqmAPhage) is reported as “lyse” and the “release of VP882 phage DNA into culture fluids” value [5] is reported as “VP882 phage DNA could be purified”. The “light production from Pq-lux” value (Pq-lux [6]) was “rapidly increased”, the “light production from Pgp69-lux” value (Pgp69-lux) was “rapidly increased” and the “offset between activation of Pq-lux and activation of Pgp69-lux” value (Pgp69-lux) was 10 min. The Pq-lux light production (Pq-lux [7]; recA+ E. coli carrying Pq-lux and HIS-HALO-Gp59) was “significant increase in light production”, the Pq-lux light production (Pq-lux [7]; ΔrecA E. coli carrying Pq-lux and HIS-HALO-Gp59) was “no effect” and the “cI localization (VP882 HALO-cI)” value (phage VP882 cI) was “remained diffuse”. The “HIS-HALO-Gp59 bands on Western blot” value (HIS-HALO-Gp59; recA+ E. coli, MMC-treated) was “lower-molecular-weight bands, presumably cleavage products” and the “HIS-HALO-Gp59 protein on Western blot” value (HIS-HALO-Gp59; ΔrecA E. coli, MMC treatment) was “unaffected”.

B1: Qtip (protein, listed as Vibrio cholerae)
chain: MCDFCSEHIDSLDALQSSLEKGTAIIELLDTALSAGIEVSPRVVSCALSAAHQHLQVSEKINRSLQIGCGSKEVLRLVD
In the case of B1, the “host cell lysis (OD600)” value [1] is reported as “host cell lysis comparable to when MMC was added or vqmAPhage was induced”, the Pq-lux activity (Pq-lux [7]; combined reporter plasmid (inducible vqmAPhage, Pq-lux, cI), pTetA-gp55 induced) is reported as “sufficient to generate Pq-lux activity” and the lysis [2, 10] is reported as “Near-complete lysis”. For the same molecule, the viral production [3, 10] was “increased viral production”, the “binding of cI during purification of HIS-Gp55” value (cI) was “cI binds to Gp55” and the “cI localization (VP882 HALO-cI)” value (phage VP882 cI) was “foci located primarily at the cell poles”. For the same molecule, the “cI aggregation (MJ1 HALO-cI)” value (HALO-cI from MJ1) was “resulted in foci”, the “cI aggregation (VP58.5 HALO-cI)” value [8] was “Aggregation also occurred” and the “cI aggregation (lambda HALO-cI)” value (lambda HALO-cI) was “No aggregation occurred”.

B2: ORF584 (protein, listed as Vibrio cholerae)
chain: MDLRVSNAKDLLDKFEEKAVQMESISQLLANAPEDLTLATVQGSLSALASIARDAGEAADRLRTISSAEG
In the case of B2, the “host cell lysis (OD600)” value [1] is reported as “lysis”, the “phage VP882 Pq expression” value (Pq-lux [7]; orf584 induced, host per Table 2) is reported as “de-repression” and the “cI localization (VP882 HALO-cI)” value (phage VP882 cI) is reported as “stripe of cI localization along the length of the cell”. For the same molecule, the “cI localization (VP882 HALO-cI)” value (phage VP882 cI; listed as orf584) was “caused aggregation”, the “cI aggregation (MJ1 HALO-cI)” value (HALO-cI from MJ1) was “caused aggregation” and the “cI aggregation (lambda HALO-cI)” value (lambda HALO-cI) was “not”.
